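Five compound concentrations were applied to cells in 96-well plates for 48 hours; endpoints were derived by simple linear interpolation of the resulting dose-response curve. Here, GI50 denotes the concentration required for 50% inhibition of growth. TGI marks complete inhibition of growth.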
Legend:
Test in all cases: NCI-60 cell line screen, 48 h; in the data active = GI50 below about 0.43 µM; inactive = the rest
OVCAR-8 ovarian = tested on: OVCAR-8 ovarian
RPMI-8226 leukemia = tested on: RPMI-8226 leukemia
EKVX NSCLC = tested on: EKVX NSCLC
A549 NSCLC = tested on: A549 NSCLC
OVCAR-3 ovarian = tested on: OVCAR-3 ovarian
SK-MEL-2 melanoma = tested on: SK-MEL-2 melanoma
IGROV1 ovarian = tested on: IGROV1 ovarian
TK-10 renal = tested on: TK-10 renal
PC-3 prostate = tested on: PC-3 prostate
ACHN renal = tested on: ACHN renal
SK-MEL-28 melanoma = tested on: SK-MEL-28 melanoma
HCT-15 colon = tested on: HCT-15 colon
MOLT-4 leukemia = tested on: MOLT-4 leukemia
NCI-H460 lung = tested on: NCI-H460 lung
HL-60(TB) leukemia = tested on: HL-60(TB) leukemia
NCI-H522 lung = tested on: NCI-H522 lung
MCF7 breast = tested on: MCF7 breast
RXF 393 renal = tested on: RXF 393 renal
MDA-MB-231 breast = tested on: MDA-MB-231 breast
UACC-257 melanoma = tested on: UACC-257 melanoma
UACC-62 melanoma = tested on: UACC-62 melanoma
SF-268 CNS = tested on: SF-268 CNS
DU-145 prostate = tested on: DU-145 prostate
SW-620 colon = tested on: SW-620 colon
MDA-MB-435 = tested on: MDA-MB-435
SF-295 CNS = tested on: SF-295 CNS
SN12C renal = tested on: SN12C renal
K-562 leukemia = tested on: K-562 leukemia
HT29 colon = tested on: HT29 colon
OVCAR-5 ovarian = tested on: OVCAR-5 ovarian
HOP-62 NSCLC = tested on: HOP-62 NSCLC
U251 CNS = tested on: U251 CNS
NCI-H226 lung = tested on: NCI-H226 lung
SF-539 CNS = tested on: SF-539 CNS
HCC-2998 colon = tested on: HCC-2998 colon
HCT-116 colon = tested on: HCT-116 colon
UO-31 renal = tested on: UO-31 renal
SNB-75 CNS = tested on: SNB-75 CNS
786-0 renal = tested on: 786-0 renal
CCRF-CEM leukemia = tested on: CCRF-CEM leukemia
T-47D breast = tested on: T-47D breast
MALME-3M melanoma = tested on: MALME-3M melanoma
KM12 colon = tested on: KM12 colon
NCI/ADR-RES ovarian = tested on: NCI/ADR-RES ovarian
NCI-H23 lung = tested on: NCI-H23 lung
HS 578T breast = tested on: HS 578T breast
BT-549 breast = tested on: BT-549 breast
COLO 205 colon = tested on: COLO 205 colon
A498 renal = tested on: A498 renal
SNB-19 CNS = tested on: SNB-19 CNS
HOP-92 NSCLC = tested on: HOP-92 NSCLC
SK-MEL-5 melanoma = tested on: SK-MEL-5 melanoma
LOX IMVI melanoma = tested on: LOX IMVI melanoma
SK-OV-3 ovarian = tested on: SK-OV-3 ovarian
SR leukemia = tested on: SR leukemia
OVCAR-4 ovarian = tested on: OVCAR-4 ovarian

Cc1ccc(-c2cc(C(=O)N3N=C(c4ccc(N)cc4)CC3c3ccc(Cl)cc3)c3ccccc3n2)cc1 (configuration not stated)
3.66 µM: TGI (MDA-MB-435)
8.1 µM: TGI (SF-539 CNS)
92.2 µM: TGI (MDA-MB-231 breast)
> 100 µM: TGI (OVCAR-8 ovarian) | TGI (RPMI-8226 leukemia) | TGI (EKVX NSCLC) | TGI (A549 NSCLC) | TGI (SK-MEL-2 melanoma) | TGI (IGROV1 ovarian) | TGI (TK-10 renal) | TGI (PC-3 prostate) | TGI (ACHN renal) | TGI (SK-MEL-28 melanoma) | TGI (HCT-15 colon) | TGI (MOLT-4 leukemia) | TGI (NCI-H460 lung) | TGI (HL-60(TB) leukemia) | TGI (MCF7 breast) | TGI (UACC-257 melanoma) | TGI (UACC-62 melanoma) | TGI (SF-268 CNS) | TGI (DU-145 prostate) | TGI (SW-620 colon) | TGI (SF-295 CNS) | TGI (SN12C renal) | TGI (K-562 leukemia) | TGI (HT29 colon) | TGI (OVCAR-5 ovarian) | TGI (HOP-62 NSCLC) | TGI (U251 CNS) | TGI (NCI-H226 lung) | TGI (HCC-2998 colon) | TGI (HCT-116 colon) | TGI (UO-31 renal) | TGI (786-0 renal) | TGI (CCRF-CEM leukemia) | TGI (T-47D breast) | TGI (MALME-3M melanoma) | TGI (KM12 colon) | TGI (NCI/ADR-RES ovarian) | TGI (NCI-H23 lung) | TGI (HS 578T breast) | TGI (BT-549 breast) | TGI (SNB-19 CNS) | TGI (SK-MEL-5 melanoma) | TGI (LOX IMVI melanoma) | TGI (SK-OV-3 ovarian) | TGI (SR leukemia) | TGI (OVCAR-4 ovarian)
7.06 µM: TGI (RXF 393 renal)
9.48 µM: TGI (COLO 205 colon)
36.6 µM: TGI (OVCAR-3 ovarian)
inactive: GI50 (OVCAR-8 ovarian) 5.25 µM | GI50 (RPMI-8226 leukemia) 4.1 µM | GI50 (EKVX NSCLC) 3.99 µM | GI50 (A549 NSCLC) 4.79 µM | GI50 (OVCAR-3 ovarian) 2.98 µM | GI50 (SK-MEL-2 melanoma) 3.81 µM | GI50 (IGROV1 ovarian) 6.48 µM | GI50 (TK-10 renal) 8.51 µM | GI50 (PC-3 prostate) 3.4 µM | GI50 (ACHN renal) 4.19 µM | GI50 (SK-MEL-28 melanoma) 6.23 µM | GI50 (HCT-15 colon) 3.33 µM | GI50 (MOLT-4 leukemia) 3.23 µM | GI50 (NCI-H460 lung) 3.51 µM | GI50 (HL-60(TB) leukemia) 3.49 µM | GI50 (NCI-H522 lung) 0.622 µM | GI50 (MCF7 breast) 2.53 µM | GI50 (RXF 393 renal) 1.63 µM | GI50 (MDA-MB-231 breast) 3.94 µM | GI50 (UACC-257 melanoma) 33.7 µM | GI50 (UACC-62 melanoma) 2.06 µM | GI50 (SF-268 CNS) 4.09 µM | GI50 (DU-145 prostate) 3.68 µM | GI50 (SW-620 colon) 4.24 µM | GI50 (MDA-MB-435) 1 µM | GI50 (SF-295 CNS) 3.13 µM | GI50 (SN12C renal) 6.84 µM | GI50 (K-562 leukemia) 3.09 µM | GI50 (HT29 colon) 3.35 µM | GI50 (OVCAR-5 ovarian) 8.43 µM | GI50 (HOP-62 NSCLC) 4.62 µM | GI50 (U251 CNS) 4.51 µM | GI50 (NCI-H226 lung) 6.47 µM | GI50 (SF-539 CNS) 2.43 µM | GI50 (HCC-2998 colon) 4.28 µM | GI50 (HCT-116 colon) 3.18 µM | GI50 (UO-31 renal) 2.2 µM | GI50 (SNB-75 CNS) 1.41 µM | GI50 (786-0 renal) 4.22 µM | GI50 (CCRF-CEM leukemia) 4.53 µM | GI50 (T-47D breast) 2.73 µM | GI50 (MALME-3M melanoma) > 100 µM | GI50 (KM12 colon) 3.46 µM | GI50 (NCI/ADR-RES ovarian) 2.54 µM | GI50 (NCI-H23 lung) 5.02 µM | GI50 (HS 578T breast) 4.68 µM | GI50 (BT-549 breast) 3.92 µM | GI50 (COLO 205 colon) 2.8 µM | GI50 (A498 renal) 1.64 µM | GI50 (SNB-19 CNS) 6.51 µM | GI50 (HOP-92 NSCLC) 4.1 µM | GI50 (SK-MEL-5 melanoma) 2.5 µM | GI50 (LOX IMVI melanoma) 4 µM | GI50 (SK-OV-3 ovarian) 4.94 µM | GI50 (SR leukemia) 3.29 µM | GI50 (OVCAR-4 ovarian) 4.71 µM
4.21 µM: TGI (NCI-H522 lung)
6.5 µM: TGI (A498 renal)
92.3 µM: TGI (HOP-92 NSCLC)
6.68 µM: TGI (SNB-75 CNS)

Source: PubChem BioAssay (NCI)
